From US9637487B2, “Purinone compounds as kinase inhibitors” (Pharmacyclics LLC, priority 2013, dated 2017)
pIC50: −log10 of the molar value.

Molecular target: Btk (Homo sapiens (Human), UniProt Q06187)
Test: Btk in vitro inhibitory activity (one of Method A TR-FRET, Method B mobility shift, Method C radiometric filter binding)
Assay type: biochemical
Settings: determined using one of the methods outlined in Example 36a, 36b and 36c
Description: Btk kinase activity is determined using a time-resolved fluorescence resonance energy transfer (TR-FRET) methodology. Measurements are performed in a reaction volume of 50 μL using 96-well assay plates. […] The reaction is quenched by the addition of 1.2 equivalents of EDTA (relative to divalent cation) in 25 μL of 1× Lance buffer (Perkin-Elmer). […] The TR-FRET signal is measured on a multimode plate reader with an excitation wavelength (λEx) of 330 nm and detection wavelengths (λEm) of 615 and 665 nm. Activity is determined by the ratio of the fluorescence at 665 nm to that at 615 nm. For each compound, enzyme activity is measured at various concentrations of compound. Negative control reactions are performed in the absence of inhibitor in replicates of six, and two no-enzyme controls are used to determine baseline fluorescence levels Inhibition constants, Ki(app), ware obtained using the program BatchKi (Kuzmic et al. (2000), Anal. Biochem. 286:45-50). IC50s are obtained according to the equation: IC50={Ki(app)/(1+[ATP]/Km^ATP)}+[E]total/2;
Kinase activity is measured in vitro using electrophoretic mobility shift assay. The kinase reactions are assembled in a total volume of 25 μL in 384 well plates. […] The reaction is incubated for one hour and is quenched by the addition of 45 μL of termination buffer (100 mM HEPES, pH7.5, 0.01% Triton X-100, 30 mM EDTA). The terminated reactions are analyzed using 12 channel LabChip® 3000 microfluidic detection instrument (Caliper Life Sciences). […] Change in the relative fluorescence intensity of the substrate and product peaks is the parameter measured, reflecting enzyme activity. In the presence of an inhibitor, the ratio between product and substrate is altered: the signal of the product decreases, while the signal of the substrate increases.
Activity in each sample is determined as the product to sum ratio (PSR):P/(S+P), where P is the peak height of the product peptide and S is the peak height of the substrate peptide. For each compound, enzyme activity is measured at various concentrations (12 concentrations of compound spaced by 3× dilution intervals). Negative control samples (0%-inhibition in the absence of inhibitor) and positive control samples (100%-inhibition, in the presence of 20 mM EDTA) are assembled in replicates of four and are used to calculate %-inhibition values for each inhibitor at each concentration. Percent inhibition (Pinh) is determined using following equation: Pinh=(PSR0%−PSRinh)/(PSR0%−PSR100%)*100, where PSRinh is the product sum ratio in the presence of inhibitor, PSR0% is the average product sum ration in the absence of inhibitor and PSR100% is the average product sum ratio in 100%-inhibition control samples;
The IC50 values of inhibitors are determined by 4 parameter sigmoidal dose-response model fitting of the inhibition curves (Pinh versus inhibitor concentration) using XLfit 4 software.
IC50 values and curve fits were obtained using Prism (GraphPad Software).
The degree of Btk inhibition was determined using one of the methods outlined in Example 36a, 36b and 36c.

Sequence of Btk (Q06187 whole entry): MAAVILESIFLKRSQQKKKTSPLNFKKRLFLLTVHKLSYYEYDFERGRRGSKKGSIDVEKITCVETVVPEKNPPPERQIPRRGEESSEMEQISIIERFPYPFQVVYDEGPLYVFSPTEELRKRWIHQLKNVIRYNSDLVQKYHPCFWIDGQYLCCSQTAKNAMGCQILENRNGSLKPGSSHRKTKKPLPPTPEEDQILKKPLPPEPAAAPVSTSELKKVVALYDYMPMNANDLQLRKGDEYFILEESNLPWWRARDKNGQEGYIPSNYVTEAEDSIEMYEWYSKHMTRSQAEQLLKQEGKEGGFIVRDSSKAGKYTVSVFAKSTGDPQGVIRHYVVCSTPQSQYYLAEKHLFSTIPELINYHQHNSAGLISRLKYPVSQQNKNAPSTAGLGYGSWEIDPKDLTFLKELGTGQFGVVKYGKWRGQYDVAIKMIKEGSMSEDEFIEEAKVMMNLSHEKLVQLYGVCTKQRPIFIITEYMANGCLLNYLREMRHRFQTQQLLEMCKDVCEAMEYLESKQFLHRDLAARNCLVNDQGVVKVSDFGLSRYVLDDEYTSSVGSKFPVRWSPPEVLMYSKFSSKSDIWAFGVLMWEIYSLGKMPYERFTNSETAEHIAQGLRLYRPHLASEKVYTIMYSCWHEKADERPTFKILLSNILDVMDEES

pIC50 | SMILES
> 7.00 | CNC(=O)/C(C#N)=C/c1cccc(-n2c(=O)n(-c3ccc(Oc4ccccc4)cc3)c3c(N)ncnc32)c1 [Compound 44, (E)-3-(3-(6-amino-8-oxo-7-(4-phenoxyphenyl)-7H-purin-9(8H)-yl)phenyl)-2-cyano-N-methylacrylamide]
> 7.00 | CN(C(=O)/C=C/CN(C)C1CC1)c1cccc(-n2c(=O)n(-c3ccc(Oc4ccccc4)nc3)c3c(N)ncnc32)c1 [Compound 49, (E)-N-(3-(6-amino-8-oxo-7-(6-phenoxypyridin-3-yl)-7H-purin-9(8H)-yl)phenyl)-4-(cyclopropyl(methyl)amino)-N-methylbut-2-enamide]
> 7.00 | CN(C(=O)/C=C/CN1CCOCC1)c1cccc(-n2c(=O)n(-c3ccc(Oc4ccccc4)cc3)c3c(N)ncnc32)c1 [Compound 51, (E)-N-(3-(6-amino-8-oxo-7-(4-phenoxyphenyl)-7H-purin-9(8H)-yl)phenyl)-N-methyl-4-morpholinobut-2-enamide]
> 7.00 | CN(C(=O)/C=C/CN1CCCC1)c1cccc(-n2c(=O)n(-c3ccc(Oc4ccccc4)cc3)c3c(N)ncnc32)c1 [Compound 52, (E)-N-(3-(6-amino-8-oxo-7-(4-phenoxyphenyl)-7H-purin-9(8H)-yl)phenyl)-N-methyl-4-(pyrrolidin-1-yl)but-2-enamide]
> 7.00 | CN(C(=O)/C=C/CN(C)C1CC1)c1cccc(-n2c(=O)n(-c3ccc(Oc4ccccc4)cn3)c3c(N)ncnc32)c1 [Compound 58, (E)-N-(3-(6-amino-8-oxo-7-(5-phenoxypyridin-2-yl)-7H-purin-9(8H)-yl)phenyl)-4-(cyclopropyl(methyl)amino)-N-methylbut-2-enamide]
> 7.00 | CN(C(=O)/C=C/CN(C)C1CC1)c1cccc(-n2c(=O)n(-c3ccc(Oc4ccccn4)cc3)c3c(N)ncnc32)c1 [Compound 63, (E)-N-(3-(6-amino-8-oxo-7-(4-(pyridin-2-yloxy)phenyl)-7H-purin-9(8H)-yl)phenyl)-4-(cyclopropyl(methyl)amino)-N-methylbut-2-enamide]
> 7.00 | CN(C(=O)/C=C/CN(C)C1CC1)c1cccc(-n2c(=O)n(-c3ncc(Oc4ccccc4)cn3)c3c(N)ncnc32)c1 [Compound 69, (E)-N-(3-(6-amino-8-oxo-7-(5-phenoxypyrimidin-2-yl)-7H-purin-9(8H)-yl)phenyl)-4-(cyclopropyl(methyl)amino)-N-methylbut-2-enamide]

Further lines, the molecule ahead of its results:

SMILES | pIC50
Cc1cc(NC(=O)c2ccc(-n3c(=O)n(-c4cccc(N(C)C(=O)/C=C/CN(C)C)c4)c4ncnc(N)c43)cc2)sn1 [Compound 25, (E)-4-(6-amino-9-(3-(4-(dimethylamino)-N-methylbut-2-enamido)phenyl)-8-oxo-8,9-dihydro-7H-purin-7-yl)-N-(3-methylisothiazol-5-yl)benzamide] | 6.00 to 7.00
CN(C)C/C=C/C(=O)N(C)c1cccc(-n2c(=O)n(-c3ccc(C(=O)c4ccccc4)cc3)c3c(N)ncnc32)c1 [Compound 26, (E)-N-(3-(6-amino-7-(4-benzoylphenyl)-8-oxo-7H-purin-9(8H)-yl)phenyl)-4-(dimethylamino)-N-methylbut-2-enamide] | > 7.00
CN(C(=O)/C=C/CN(C)C1CC1)c1cccc(-n2c(=O)n(-c3ccc(C(=O)c4ccccc4)cc3)c3c(N)ncnc32)c1 [Compound 27, (E)-N-(3-(6-amino-7-(4-benzoylphenyl)-8-oxo-7H-purin-9(8H)-yl)phenyl)-4-(cyclopropyl(methyl)amino)-N-methylbut-2-enamide] | > 7.00
CN(C)C/C=C/C(=O)N(C)c1cccc(-n2c(=O)n(-c3ccc(OC4CC4)cc3)c3c(N)ncnc32)c1 [Compound 28, (E)-N-(3-(6-amino-7-(4-cyclopropoxyphenyl)-8-oxo-7H-purin-9(8H)-yl)phenyl)-4-(dimethylamino)-N-methylbut-2-enamide] | 6.00 to 7.00
C=CC(=O)N(C)c1cccc(-n2c(=O)n(-c3ccc(C(=O)Nc4ccccn4)cc3)c3c(N)ncnc32)c1 [Compound 29, 4-(6-amino-9-(3-(N-methylacrylamido)phenyl)-8-oxo-8,9-dihydro-7H-purin-7-yl)-N-(pyridin-2-yl)benzamide] | > 7.00
C=CC(=O)N(C)c1cccc(-n2c(=O)n(-c3ccc(OC4CC4)cc3)c3c(N)ncnc32)c1 [Compound 30, N-(3-(6-amino-7-(4-cyclopropoxyphenyl)-8-oxo-7H-purin-9(8H)-yl)phenyl)-N-methylacrylamide] | > 7.00
CN(C(=O)CC#N)c1cccc(-n2c(=O)n(-c3ccc(Oc4ccccc4)cc3)c3c(N)ncnc32)c1 [Compound 33, N-(3-(6-amino-8-oxo-7-(4-phenoxyphenyl)-7H-purin-9(8H)-yl)phenyl)-2-cyano-N-methylacetamide] | 6.00 to 7.00
CN(C(=O)C1(C#N)CC1)c1cccc(-n2c(=O)n(-c3ccc(Oc4ccccc4)cc3)c3c(N)ncnc32)c1 [Compound 34, N-(3-(6-amino-8-oxo-7-(4-phenoxyphenyl)-7H-purin-9(8H)-yl)phenyl)-1-cyano-N-methylcyclopropanecarboxamide] | 6.00 to 7.00
